Measured values: patent US20250136563A1, “THIADIAZOLONE DERIVATIVES USEFUL AS AMPK ACTIVATOR” (Betagenon AB, priority 2021, published 2025)
Entries after “also recorded” stand apart in the source; their conditions may differ. Structures can show the parent of a compound that is named as a salt. Where two headings read alike, the source gives them in different places. One block for each molecule: values may come before it.

Tests used:
[1] = Single dose oral pharmacokinetic study of Compounds 5, 6, 7, 9, 10, 13, 14, 16 and 17 in Sprague Dawley rats; type: in vivo
Description: 10.0 mL of 2% w/v methyl cellulose solution in phosphate buffer (pH 7.5) was added to a 100 mL conical flask along with 1 g of 2 mm glass beads. The solution was vigorously stirred on a magnetic stirrer. 100 mg of Compound 1 was slowly added to the solution, and the solution was vigorously stirred for approximately 1 h. The pH of the formulation was measured to be 7.49. Each formulation was freshly prepared prior to administration to the animals. The final concentration of Compound 1 in of the formulation was 10 mg/mL. The formulation was administered at 5 mL/kg body weight. […]
Adult healthy male Sprague Dawley rats aged 8 to 10 weeks were used for experimentation after a minimum three days of acclimatization. Fed state animals were administered the formulation of Compound 1 or Compound 3 orally via gavage at a dose of 50 mg/kg or 65 mg/kg body weight, respectively.
Under mild isoflurane anesthesia, blood specimens were collected by retro-orbital puncture method using capillary tubes into pre-labeled tubes containing anticoagulant (K2EDTA: 2 mg/mL blood) during the next 72 hours post-dosing, as detailed in Table 6. For blood sampling at multiple time points, the right and left eyes were used alternatively. Collected blood specimens were centrifuged at 6000 rpm, 4° C. for 10 minutes and the plasma samples were separated and stored at −80° C. until analysis.
Formulations were prepared in accordance with the method described in Example 19.
Doses equivalent to 50 mg/kg of Compound 1 were selected for comparison of equimolar doses.
The administration and blood sampling were performed as described in Example 19.
The results for the single dose oral pharmacokinetic study in rats are tabulated in Tables 7 and below and are shown graphically in FIG. 3. In Table 7, the Cmax, Tmax, AUClast, AUCinf, AUCextrap and T1/2 values are for 4-chloro-N-[2-[(4-chlorophenyl)methyl]-3-oxo-1,2,4-thiadiazol-5-yl]benzamide (Compound 1), which was detected following the administration of the compounds.

[2] = Stability in HCl buffer (pH 1.20), 37° C.; type: physicochemical; conditions: for % remaining compared to 0.0 min: HCl buffer pH 1.20, 37° C.
Description: 5 μM solutions of Compound 1 and Compound 4 (i.e. the citric acid salt of Compound 3) in HCl buffer (pH: 1.20) were prepared with 5 mM DMSO stock solutions.

[3] = mice; Das et al. 2019; cited from earlier work
[4] = Single dose oral pharmacokinetic study of Compounds 1 and 3 in Sprague Dawley rats; type: in vivo; conditions: equimolar doses
Description: 10.0 mL of 2% w/v methyl cellulose solution in phosphate buffer (pH 7.5) was added to a 100 mL conical flask along with 1 g of 2 mm glass beads. The solution was vigorously stirred on a magnetic stirrer. 100 mg of Compound 1 was slowly added to the solution, and the solution was vigorously stirred for approximately 1 h. The pH of the formulation was measured to be 7.49. Each formulation was freshly prepared prior to administration to the animals. The final concentration of Compound 1 in of the formulation was 10 mg/mL. The formulation was administered at 5 mL/kg body weight.
6 mL of 2% w/v methyl cellulose solution in phosphate buffer (pH 7.5) was added to a 25 mL of conical flask together with 1 g of 2 mm glass beads. The solution was vigorously stirred on a magnetic stirrer. 78 mg of Compound 3 was slowly added to the solution, and the solution was vigorously stirred for approximately 1 h. The pH of the formulation was measured to be 7.41. […]
The results for the single dose oral pharmacokinetic study in rats are tabulated in Tables 5 and 6 below and are shown graphically in FIG. 2. In Table 5, the Cmax, Tmax, AUClast, AUCinf, AUCextrap, T1/2 and MRTlast values are for 4-chloro-N-[2-[(4-chlorophenyl)methyl]-3-oxo-1,2,4-thiadiazol-5-yl]benzamide (Compound 1), which was detected following the administration of both Compounds 1 and 3.

[5] = Stability in buffers pH 1.20, 7.40 and 9.20 (Examples 26 and 27)
Description: The stability of Compound 17 was assessed in buffers with pH 1.20, 7.40 and 9.20. The pH 1.20 study was conducted using an HCl buffer. A phosphate buffer was used for the pH 7.40 medium, and an alkaline borate buffer was used for the pH 9.20 medium.
HCl buffer—Potassium chloride (1.491 g) was dissolved in 100 mL of Ultrapure water type-1 to get 0.2 M KCl solution. About 50 mL of 0.2 M KCl was taken in a beaker and the pH was adjusted to 1.20 using 0.2 M HCl solution. The final volume was made up to 200 mL using Ultrapure water type-1 and stored at room temperature (22±3° C.).
Phosphate buffer—Potassium phosphate monobasic (2.722 g) was dissolved in 100 mL of Ultrapure water type-1 to get 0.2 M solution. About 50 mL of 0.2 M solution was taken in a beaker and the pH was adjusted to 7.40 using 0.2 M NaOH solution. The final volume was made up to 200 mL using Ultrapure water type-1 and stored at room temperature (22±3° C.).
Alkaline borate buffer—Boric acid (1.237 g) and potassium chloride (1.491 g) were dissolved in 100 mL of Ultrapure water type-1 to get 0.2 M solution. About 50 mL of 0.2 M solution was taken in beaker and the pH was adjusted to 9.20 using 0.2 M NaOH solution. The final volume was made up to 200 mL using Ultrapure water type-1 and stored at room temperature (22±3° C.).
5 μM solutions of Compound 17 in each buffer were prepared with 5 mM DMSO stock solutions. The solutions were incubated at 22 t 3° C. for 120 minutes, with shaking at 400 rpm using a thermomixer.
After 0, 15, 30, 60 and 120 minute intervals, aliquots of sufficient volume of the compound solutions were taken, diluted and analysed to determine the stability of Compound 17 in each solution, as well as the amount of Compound 1 present. The amount of Compound 1 present was compared to the amount expected assuming full conversion of Compound 17 to Compound 1.
The stability of Compounds 3, 6, 9, 20 and 23 was tested using the same methods as described above for Compound 17.

[6] = test system: AMPK; assay: Activation of AMPK: Western blot of p-T172 AMPKα in INS-1E insulinoma cells; type: cell-based; conditions: for ratio between p-T172 AMPK and non-phosphorylated AMPK: INS-1E cells, 4 h, control 1.00
Description: INS-1E cells were cultivated as described in Steneberg et al., JCI Insight. 2018; 3(12):e99114. https://doi.org/10.1172/jci.insight.99114, using 5% instead of 10% fetal bovine serum when plated for treatment.
Compound 3 was dissolved at 10 mM in DMSO and frozen at −20° C.
The INS-1E cells were treated in serum free medium with increasing doses of Compound 3 for 4 hours in accordance with the methods described in Steneberg et al., JCI Insight. 2018; 3(12):e99114. https://doi.org/10.1172/jci.insight.99114.
Western blot analysis of the INS-1E cells was performed as described in Steneberg et. al., JCI Insight. 2018; 3(12):e99114. https://doi.org/10.1172/jci.insight.99114. The cell lysates were passed through a 30-gauge needle, ˜8-times and centrifuged for 10 min at +4° C. at 14000 rpm. Quantified values for AMPKα, and phosphorylated-T172 AMPKα, were normalized toward the quantified values for β-Actin.

[7] = for % remaining after 15 min / % remaining after 30 min: buffer; for % remaining after 15 min: 0.25 h; for % remaining after 30 min: 0.5 h
[8] = analyte Compound 1 in plasma, oral, dose equivalent to 50 mg/kg of Compound 1

Molecule: 2-({[5-(4-chlorobenzamido)-2-[(4-chlorophenyl)methyl]-3-oxo-1,2,4-thiadiazolidin-4-yl]methoxy}carbonyl)-1-methylpyrrolidine [Compound 10]
Plasma Concentration of Compound 1 ([1]; 0.00 h post-dose, oral, equivalent to 50 mg/kg of Compound 1): 0.00 µg/mL | Plasma Concentration of Compound 1 ([1]; 1.00 h post-dose): 76.70 µg/mL | Plasma Concentration of Compound 1 ([1]; 4.00 h post-dose): 106.37 µg/mL | Plasma Concentration of Compound 1 ([1]; 8.00 h post-dose): 100.53 µg/mL | Plasma Concentration of Compound 1 ([1]; 24.00 h post-dose): 26.77 µg/mL | AUCextrap [1, 8]: 17.81% | AUCinf [1, 8]: 2120.39 µg·h/mL | AUClast [1, 8]: 1745.15 µg·h/mL | Cmax [1, 8]: 114.03 µg/mL | T1/2 [1, 8]: 9.63 h | Tmax [1, 8]: 5.33 h

Molecule: O=C(Nc1nc(=O)n(Cc2ccc(Cl)cc2)s1)c1ccc(Cl)cc1 [Compound 1, 4-chloro-N-[2-[(4-chlorophenyl)methyl]-3-oxo-1,2,4-thiadiazol-5-yl]benzamide, reference compound]
% remaining compared to 0.0 min ([2]; 0.0 min): 100.00% | % remaining compared to 0.0 min ([2]; 15 min): 71.32% | % remaining compared to 0.0 min ([2]; 30 min): 63.05% | % remaining compared to 0.0 min ([2]; 60 min): 58.77% | % remaining compared to 0.0 min ([2]; 120 min): 43.04% | treating pain (in words) [3]: effective at treating pain

Molecule: CN(C)C(=N)N=C(N)N [metformin]
treating pain (in words) [3]: effective at treating pain

More lines, main results first:

% remaining compared to 0.0 min ([2]; 0.0 min): 100.00% | % remaining compared to 0.0 min ([2]; 15 min): 96.92% | % remaining compared to 0.0 min ([2]; 30 min): 83.74% | % remaining compared to 0.0 min ([2]; 60 min): 86.54% | % remaining compared to 0.0 min ([2]; 120 min): 88.31% | stability in acidic solutions (in words) ([2]; pH 1.2): greater stability than Compound 1 | increase in systemic exposure of Compound 1 after oral Compound 3 versus oral Compound 1 [4]: ten-fold | % remaining after 15 min ([5]; buffer pH 1.2): 97% | % remaining after 30 min ([5]; buffer pH 1.2): 83% | % remaining after 15 min ([5]; buffer pH 7.4): 46% | % remaining after 30 min ([5]; buffer pH 7.4): 16%
Molecule: CN(C)CC(=O)OCn1c(=O)n(Cc2ccc(Cl)cc2)s/c1=N\C(=O)c1ccc(Cl)cc1 [Compound 3, Dimethylamino-Acetic Acid 5-[(Z)-4-chloro-benzoylimino]-2-(4-chloro-benzyl)-3-oxo-[1,2,4]thiadiazolidin-4-ylmethyl Ester]
ratio between p-T172 AMPK and non-phosphorylated AMPK ([6]; 1.25 μM): 1.24 | ratio between p-T172 AMPK and non-phosphorylated AMPK ([6]; 2.5 μM): 2.24 | ratio between p-T172 AMPK and non-phosphorylated AMPK ([6]; 5 μM): 5.99 | phosphorylation of AMPK (in words) ([6]; cultured INS-1E cells): increases phosphorylation of AMPK in a dose-dependent manner; also recorded: increases phosphorylated-T172 AMPK in a dose-dependent manner

% remaining after 15 min ([5]; buffer pH 1.2): 83% | % remaining after 30 min ([5]; buffer pH 1.2): 86% | % remaining after 15 min ([5]; buffer pH 7.4): 33% | % remaining after 30 min ([5]; buffer pH 7.4): 33%
Molecule: NCCCCC(N)C(=O)OCN1C(=O)N(Cc2ccc(Cl)cc2)SC1NC(=O)c1ccc(Cl)cc1.O=C(O)C(F)(F)F.O=C(O)C(F)(F)F (centres unmarked) [Compound 6, 6-{[5-(4-chlorobenzamido)-2-[(4-chlorophenyl)methyl]-3-oxo-1,2,4-thiadiazolidin-4-yl]methoxy}-6-oxohexane-1,5-bis(aminium) di-trifluoroacetate]

% remaining after 15 min ([5]; buffer pH 1.2): 100% | % remaining after 30 min ([5]; buffer pH 1.2): 100% | % remaining after 15 min ([5]; buffer pH 7.4): 46% | % remaining after 30 min ([5]; buffer pH 7.4): 13%
Molecule: NCC(=O)OCn1c(=O)n(Cc2ccc(Cl)cc2)s/c1=N\C(=O)c1ccc(Cl)cc1 [Compound 9, Trifluoroacetate]

% remaining after 15 min ([5]; buffer pH 1.2): 76% | % remaining after 30 min ([5]; buffer pH 1.2): 82% | % remaining after 15 min ([5]; buffer pH 7.4): 0% | % remaining after 30 min ([5]; buffer pH 7.4): 0% | Percentage of Compound 17 remaining compared to 0 minutes ([5]; pH 1.20, 0.0 min): 100.00 | Percentage of Compound 17 remaining compared to 0 minutes ([5]; pH 1.20, 15.0 min): 76.19 | Percentage of Compound 17 remaining compared to 0 minutes ([5]; pH 1.20, 30.0 min): 82.37 | Percentage of Compound 17 remaining compared to 0 minutes ([5]; pH 1.20, 60.0 min): 73.33 | Percentage of Compound 17 remaining compared to 0 minutes ([5]; pH 1.20, 120.0 min): 79.04 | Percentage of Compound 17 remaining compared to 0 minutes ([5]; pH 7.40, 0.0 min): 100.00 | Percentage of Compound 17 remaining compared to 0 minutes ([5]; pH 7.40, 15.0 min): 0.13 | Percentage of Compound 17 remaining compared to 0 minutes ([5]; pH 7.40, 30.0 min): 0.39 | Percentage of Compound 17 remaining compared to 0 minutes ([5]; pH 7.40, 60.0 min): 0.47 | Percentage of Compound 17 remaining compared to 0 minutes ([5]; pH 7.40, 120.0 min): 2.33 | stability at pH 7.40 and above (in words) ([5]; pH 7.40 / higher pH, Trifluoroacetate): degrade rapidly; also recorded: very low | Percentage of Compound 17 remaining compared to 0 minutes ([5]; pH 9.20, 0.0 min): 100.00 | Percentage of Compound 17 remaining compared to 0 minutes ([5]; pH 9.20, 15.0 min): 0.00 | Percentage of Compound 17 remaining compared to 0 minutes ([5]; pH 9.20, 30.0 min): 0.00 | Percentage of Compound 17 remaining compared to 0 minutes ([5]; pH 9.20, 60.0 min): 0.00 | Percentage of Compound 17 remaining compared to 0 minutes ([5]; pH 9.20, 120.0 min): 0.00
Molecule: NC(CC(=O)O)C(=O)OCn1c(=O)n(Cc2ccc(Cl)cc2)s/c1=N/C(=O)c1ccc(Cl)cc1 (centres unmarked) [Compound 17, Trifluoroacetate]
stability at pH 1.2 (in words) ([5]; pH 1.2, Trifluoroacetate): greatest stability; also recorded: relatively stable

% remaining after 15 min ([7]; pH 1.2): 78% | % remaining after 15 min ([7]; pH 7.4): 0% | % remaining after 30 min ([7]; pH 1.2): 77% | % remaining after 30 min ([7]; pH 7.4): 0% | stability at pH 1.2 (in words) ([7]; pH 1.2): relatively stable | stability at pH 7.40 and above (in words) ([7]; pH 7.4): degrade rapidly
Molecule: [azaniumyl({[(4S)-4-azaniumyl-4-[(2-{[5-(4-chlorobenzamido)-2-[(4-chlorophenyl)methyl]-3-oxo-1,2,4-thiadiazolidin-4-yl]methoxy}-2-oxoethyl)carbamoyl]butyl]amino})methylidene]azanium Trichloride [Compound 23]
